The results in this text go back to PubChem BioAssay (NCI).

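Where inhibition never reached the appropriate level, the endpoint shown equals the highest concentration tested. Otherwise, values were interpolated linearly from a five-concentration, 48-hour dose response in 96-well plates. GI50 marks 50% less growth. TGI: concentration producing complete growth inhibition.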

For one test, the system named is CCRF-CEM leukemia. The test can be described thus: NCI tumour cell line growth inhibition, 48 h.
The compound `O=c1ssc(=Nc2ccccc2)n1-c1ccccc1` had a TGI above 100 µM.
For the compound `NCCSS(=O)(=O)CCN`, the TGI is above 100 µM.
In the case of `CC(=O)Oc1cc2c(cc1OC(C)=O)OCC(c1ccccc1)C2` (centres undefined), the TGI turned out to be 15.1 µM.
The compound `OCCNCCN1CCN(CCCN2c3ccccc3Sc3ccc(C(F)(F)F)cc32)CC1` yielded a TGI above 100 µM.
On the same count and under the same terms, next, `O=C(O)c1cc2c(ncc3c(=O)n(-c4ccccc4)[nH]c32)s1`: above 100 µM; `O=C(CCl)NNC1=Nc2ccc(Cl)cc2SC1`: 3.08 µM; `CCCc1c(-c2ccccc2)[nH]c2ccccc2c1=O`: above 100 µM.
Regarding `CO/N=C(/C)c1ccc(NC(=O)CSc2nnc(-c3ccncc3)n2-c2ccccc2)cc1`, the GI50 is above 100 µM and the TGI is above 100 µM.
Turning to `C[N+](C)(C)CCc1ccccc1`, the TGI is above 100 µM.
On to `O=C1C=CC2(C=C1)O[C@H](Cc1ccccc1)[C@@H](Cc1ccccc1)O2`, for which the TGI amounted to 0.585 µM.
`CCCNC(=O)C(C)C1CCC2(C)C=CC(=O)C(C)=C2C1O` (centres undefined) yielded a TGI above 100 µM.
Same read-out and setting: next, `O=C(Nc1nc2ccc([N+](=O)[O-])cc2s1)C(=O)C(C(=O)c1ccccc1F)C1OC(=O)c2ccccc21` (centres undefined): 48.7 µM; `COc1nc(=O)n(COC(CO)CN2C(=O)c3ccccc3C2=O)cc1Cc1cccc(OCc2ccccc2)c1` (centres undefined): 60.2 µM.

The test system of a further test is SN12K1 renal. The experiment in a line: NCI tumour cell line growth inhibition, 48 h.
On to `N#C[C@H](OC1OC(COC2OC(CO)C(O)C(O)C2O)C(O)C(O)C1O)c1ccccc1` (some centres undefined), for which the TGI is above 250 µM.
On to `CCN(CC)c1ccc2cc(C(=O)Nc3ccc4[nH]c(C(=O)N5C[C@@H](CCl)c6c5cc(OC(=O)Nc5ccccc5)c5[nH]cc(C)c65)cc4c3)oc2c1`, for which the GI50 was 128 µM and the TGI worked out at 387 µM.
As to `CC(=O)Oc1cc2c(cc1OC(C)=O)OCC(c1ccccc1)C2` (centres undefined), the TGI was 38.6 µM.
The same measure, in the same setting: next, `O=C(CCl)NNC1=Nc2ccc(Cl)cc2SC1`: 7.94 µM; `CCCNC(=O)C(C)C1CCC2(C)C=CC(=O)C(C)=C2C1O` (centres undefined): above 100 µM.
For `Nc1ccn(C2C=C(CO)C(O)C2O)c(=O)c1` (centres undefined), the TGI is above 625 µM.

In another test the test system is KM20L2 colon. The test can be described thus: NCI tumour cell line growth inhibition, 48 h.
Consider `N#C[C@H](OC1OC(COC2OC(CO)C(O)C(O)C2O)C(O)C(O)C1O)c1ccccc1` (some centres undefined), for which the TGI was above 250 µM.
In the case of `CCN(CC)c1ccc2cc(C(=O)Nc3ccc4[nH]c(C(=O)N5C[C@@H](CCl)c6c5cc(OC(=O)Nc5ccccc5)c5[nH]cc(C)c65)cc4c3)oc2c1`, the TGI was above 1000 µM.
`CC(=O)Oc1cc2c(cc1OC(C)=O)OCC(c1ccccc1)C2` (centres undefined) registered a TGI of 61.1 µM.
As for `O=C(O)c1cc2c(ncc3c(=O)n(-c4ccccc4)[nH]c32)s1`, the TGI was above 100 µM.
Take `O=C(CCl)NNC1=Nc2ccc(Cl)cc2SC1`: the TGI came to 9.18 µM.
In turn, `Cc1ccc(C2OC(COCc3ccc(Cl)cc3)C(OCc3ccc(Cl)cc3)C2O)cc1` (centres undefined) gave a TGI of 56.1 µM.
On to `C[N+](C)(C)CCc1ccccc1`, for which the TGI is above 100 µM.
`CCCNC(=O)C(C)C1CCC2(C)C=CC(=O)C(C)=C2C1O` (centres undefined) came in with a TGI above 100 µM.
Regarding `O=C(Nc1nc2ccc([N+](=O)[O-])cc2s1)C(=O)C(C(=O)c1ccccc1F)C1OC(=O)c2ccccc21` (centres undefined), the TGI was above 100 µM.
Same read-out and setting: the value for `Nc1ccn(C2C=C(CO)C(O)C2O)c(=O)c1` (centres undefined) was above 625 µM; that for `COc1nc(=O)n(COC(CO)CN2C(=O)c3ccccc3C2=O)cc1Cc1cccc(OCc2ccccc2)c1` (centres undefined) was 55.7 µM.

A further test concerns DMS 273 small cell lung. The test can be described thus: NCI tumour cell line growth inhibition, 48 h.
As for `N#C[C@H](OC1OC(COC2OC(CO)C(O)C(O)C2O)C(O)C(O)C1O)c1ccccc1` (some centres undefined), the TGI is above 250 µM.
Turning to `CCN(CC)c1ccc2cc(C(=O)Nc3ccc4[nH]c(C(=O)N5C[C@@H](CCl)c6c5cc(OC(=O)Nc5ccccc5)c5[nH]cc(C)c65)cc4c3)oc2c1`, the GI50 was 70.4 µM.
The compound `CC(=O)Oc1cc2c(cc1OC(C)=O)OCC(c1ccccc1)C2` (centres undefined) yielded a TGI of 102 µM.
The compound `O=C(O)c1cc2c(ncc3c(=O)n(-c4ccccc4)[nH]c32)s1` came in with a TGI above 100 µM.
As for `O=C(CCl)NNC1=Nc2ccc(Cl)cc2SC1`, the TGI is 8.29 µM.
Regarding `Cc1ccc(C2OC(COCc3ccc(Cl)cc3)C(OCc3ccc(Cl)cc3)C2O)cc1` (centres undefined), the TGI is 18.9 µM.
On the same count and under the same terms, the value for `C[N+](C)(C)CCc1ccccc1` was above 100 µM; that for `CCCNC(=O)C(C)C1CCC2(C)C=CC(=O)C(C)=C2C1O` (centres undefined) was above 100 µM; that for `O=C(Nc1nc2ccc([N+](=O)[O-])cc2s1)C(=O)C(C(=O)c1ccccc1F)C1OC(=O)c2ccccc21` (centres undefined) was above 100 µM.
In turn, `Nc1ccn(C2C=C(CO)C(O)C2O)c(=O)c1` (centres undefined) yielded a TGI above 625 µM.
Still for that read-out and setting: next, `COc1nc(=O)n(COC(CO)CN2C(=O)c3ccccc3C2=O)cc1Cc1cccc(OCc2ccccc2)c1` (centres undefined): 45.4 µM.

The test system of the next test is M19-MEL melanoma. The experiment in a line: NCI tumour cell line growth inhibition, 48 h.
`N#C[C@H](OC1OC(COC2OC(CO)C(O)C(O)C2O)C(O)C(O)C1O)c1ccccc1` (some centres undefined) had a TGI above 250 µM.
Turning to `CCN(CC)c1ccc2cc(C(=O)Nc3ccc4[nH]c(C(=O)N5C[C@@H](CCl)c6c5cc(OC(=O)Nc5ccccc5)c5[nH]cc(C)c65)cc4c3)oc2c1`, the GI50 was 237 µM and the TGI turned out to be 922 µM.
Compound `CC(=O)Oc1cc2c(cc1OC(C)=O)OCC(c1ccccc1)C2` (centres undefined) showed a TGI of 45.7 µM.
Regarding `O=C(O)c1cc2c(ncc3c(=O)n(-c4ccccc4)[nH]c32)s1`, the TGI was above 100 µM.
Same read-out and setting: the value for `O=C(CCl)NNC1=Nc2ccc(Cl)cc2SC1` was 5.46 µM; that for `Cc1ccc(C2OC(COCc3ccc(Cl)cc3)C(OCc3ccc(Cl)cc3)C2O)cc1` (centres undefined) was 38.1 µM; that for `C[N+](C)(C)CCc1ccccc1` was above 100 µM.
Turning to `CCCNC(=O)C(C)C1CCC2(C)C=CC(=O)C(C)=C2C1O` (centres undefined), the TGI was above 100 µM.
For `O=C(Nc1nc2ccc([N+](=O)[O-])cc2s1)C(=O)C(C(=O)c1ccccc1F)C1OC(=O)c2ccccc21` (centres undefined), the TGI is above 100 µM.
For the compound `Nc1ccn(C2C=C(CO)C(O)C2O)c(=O)c1` (centres undefined), the TGI is above 625 µM.
`COc1nc(=O)n(COC(CO)CN2C(=O)c3ccccc3C2=O)cc1Cc1cccc(OCc2ccccc2)c1` (centres undefined) came in with a TGI of 45.2 µM.

Another test relates to HCT-116 colon. The experiment in a line: NCI tumour cell line growth inhibition, 48 h.
In the case of `N#C[C@H](OC1OC(COC2OC(CO)C(O)C(O)C2O)C(O)C(O)C1O)c1ccccc1` (some centres undefined), the TGI was above 250 µM.
Same read-out and setting: next, `CCN(CC)c1ccc2cc(C(=O)Nc3ccc4[nH]c(C(=O)N5C[C@@H](CCl)c6c5cc(OC(=O)Nc5ccccc5)c5[nH]cc(C)c65)cc4c3)oc2c1`: 378 µM; `Cn1c(=O)c2[nH]c(CCNC(=O)c3ccccc3)nc2n(C)c1=O`: above 100 µM; `Cc1cc(S(=O)(=O)Nc2nc3ccccc3nc2-c2cccc([N+](=O)[O-])c2)c(S)cc1Cl`: 35.2 µM.
In the case of `NCCSS(=O)(=O)CCN`, the TGI is above 100 µM.
Compound `CC(=O)Oc1cc2c(cc1OC(C)=O)OCC(c1ccccc1)C2` (centres undefined) came in with a TGI of 57.4 µM.
As for `OCCNCCN1CCN(CCCN2c3ccccc3Sc3ccc(C(F)(F)F)cc32)CC1`, the TGI was 31.7 µM.
`O=C(O)c1cc2c(ncc3c(=O)n(-c4ccccc4)[nH]c32)s1`: the TGI is above 100 µM.
`O=C(CCl)NNC1=Nc2ccc(Cl)cc2SC1` gave a TGI of 3.2 µM.
In turn, `CCCc1c(-c2ccccc2)[nH]c2ccccc2c1=O` had a TGI of 72.8 µM.
Take `Cc1ccc(C2OC(COCc3ccc(Cl)cc3)C(OCc3ccc(Cl)cc3)C2O)cc1` (centres undefined): the TGI was above 100 µM.
As for `CO/N=C(/C)c1ccc(NC(=O)CSc2nnc(-c3ccncc3)n2-c2ccccc2)cc1`, the GI50 was 3.43 µM and the TGI was above 100 µM.
`C[N+](C)(C)CCc1ccccc1` came in with a TGI above 100 µM.
Compound `COc1c(Br)cc2c(c1OC)C(Br)CCC(Br)(Br)C2=O` (centres undefined) gave a TGI of 0.853 µM.
`CCCNC(=O)C(C)C1CCC2(C)C=CC(=O)C(C)=C2C1O` (centres undefined) displayed a TGI above 100 µM.
As for `O=C(Nc1nc2ccc([N+](=O)[O-])cc2s1)C(=O)C(C(=O)c1ccccc1F)C1OC(=O)c2ccccc21` (centres undefined), the TGI is above 100 µM.
In turn, `Nc1ccn(C2C=C(CO)C(O)C2O)c(=O)c1` (centres undefined) displayed a TGI above 625 µM.
Consider `COc1nc(=O)n(COC(CO)CN2C(=O)c3ccccc3C2=O)cc1Cc1cccc(OCc2ccccc2)c1` (centres undefined), for which the TGI is above 100 µM.
